Reference: US11939588B2, “Elevated resistance to insects and plant pathogens without compromising seed production” (Board of Trustees of Michigan State University, priority 2019, dated 2024)

Key:
Assay type in all cases: in vivo, Arabidopsis thaliana
[1] = system: leaves of wild type, jazQ and jazD plants; experiment: Coronatine treatment of intact leaves; conditions: 50 μM coronatine
Protocol: The eighth true leaf of 40-day-old plants grown under 12-hour-light/12-hour-dark conditions were spotted with 5 μL of sterile water (mock) or a solution containing 50 μM coronatine (Sigma-Aldrich, C8115) prepared in sterile water. Photographs were taken two and four days after treatment.

[2] = system: WT, jazQ and jazD seedlings; experiment: Sucrose rescue assay (leaf biomass and root growth)
Protocol: The effect of exogenous sucrose on leaf biomass and root growth was determined by growing seedlings on square Petri plates (Greiner Bio-One; 120×120×17 mm). In order to control for variation in seed quality, seeds were sieved after drying with desiccant for two weeks (see above). After sterilization and washing, seeds were sown without stratification on 0.7% (w/v) agar media containing half-strength LS salts supplemented with sucrose or sorbitol. Each plate contained ten (for biomass) or five (for root growth) seeds of Col-0 and mutant lines. Plates were placed in the dark at 4° C. for four days and then incubated horizontally (for leaf biomass) or vertically (for root growth) in growth chambers maintained at 21° C. under 16 h at a light intensity of 80 μE m^−2 s^−1 and 8-hour dark. ImageJ was used to measure root length after 11 days. Plant biomass and projected leaf area were measured after 16 days.

[3] = system: WT, cdk8-1, jazD and jazD cdk8-1 seedlings; experiment: Root length on medium with 5-methyl-tryptophan; conditions: 0 or 15 μM 5-MT, 10-day-old, partially dependent on CDK8
From the text: FIG. 13A is a schematic of tryptophan biosynthesis from chorismate. Tryptophan feedback inhibits the activity of anthranilate synthase (AS). Although 5-methyl-tryptophan (5-MT) inhibits anthranilate synthase activity, it cannot be used for the production of proteins. The abbreviations used in FIG. 13A are: TRP, anthranilate phosphoribosyltransferase: PAI, phosphoribosylanthranilate isomerase; IGPS, indole-3-glycerol-phosphate synthase; TSA, tryptophan synthase alpha subunit: TSB, tryptophan synthase beta subunit. FIG. 13B graphically illustrates root length of WT, cdk8-1, jazD, and jazD cdk8-1 10-day-old seedlings grown on medium supplemented with 0 or 15 μM of 5-methyl-tryptophan (5-MT). Data shown are the mean±SD of at least 24 seedlings per genotype at each 5-MT concentration. Letters denote significant differences according to Tukey's HSD test (P<0.05).
FIG. 13B graphically illustrates root length of WT, cdk8-1, jazD, and jazD cdk8-1 10-day-old seedlings grown on medium supplemented with 0 or 15 μM of 5-methyl-tryptophan (5-MT). The data shown in FIG. 13B are the mean±SD of at least 24 seedlings per genotype at each 5-MT concentration, while the letters denote significant differences according to Tukey's HSD test (P<0.05).

[4] = system: wild type Col-0 (WT), jazQ, jazD and jazU seedlings; experiment: Root elongation assay with MeJA
Protocol: Seeds were surface sterilized with 50% (v/v) bleach for three min, washed 10 times with sterile water and stratified in dark at 4° C. for two days. Seedlings were grown on 0.7% (w/v) agar media containing half-strength Linsmaier and Skoog (LS; Caisson Labs) salts supplemented with 0.8% (w/v) sucrose and the indicated concentration of MeJA (Sigma-Aldrich). Each square Petri plate (Fisher; 100×100×15 mm) contained five seedlings per genotype. Plates were incubated vertically in a growth chamber maintained at 21° C. for eight days under 16-hour-light (80 μE m^−2s^−1)/8-hour-dark conditions. The length of primary roots was measured using ImageJ software (see website at imagej.nih.gov/ij/).

[5] = system: WT, jazQ and jazD seedlings; experiment: Apical hook formation in ethylene-elicited (ACC-treated) seedlings; conditions: jazD and jazQ seedlings compared with WT
From the text: FIGS. 3A-3F illustrates that jazD plants are highly resistant to insect herbivores and necrotrophic pathogens. […] Data shown are the mean±SD of at least 30 larvae per genotype. Capital letters denote significant differences according to Tukey's HSD test (P<0.05). FIG. 3C is a heat map displaying the expression level of various jasmonate/ethylene-responsive genes in leaves of jazQ and jazD normalized to wild type. ACT, agmatine coumaroyl transferase (accession no. At5g61160). […] FIG. 3E graphically illustrates disease lesion size on leaves of the indicated genotypes following 5 days of treatment with B. cinerea spores for the indicated plant lines. […] Capital letters denote significant differences (Tukey's HSD test, P<0.05). FIG. 3F graphically illustrates apical hook angles of seedlings grown in the presence of various concentrations of the ethylene precursor 1-aminocyclopropane-1-carboxylic acid (ACC). Data shown are the mean±SD of at least 21 seedlings per genotype. […]
In agreement with the RNA-seq data, jazQ plants were slightly more susceptible than wild type to the necrotrophic pathogen Botrytis cinerea, whereas jazD leaves were more resistant to the spread of disease lesions (FIG. […]). To determine whether jazQ and jazD differentially affect other ethylene responses, the inventors assessed apical hook formation in ethylene-elicited seedlings.

## CC[C@H]1C=C(C(=O)N[C@@]2(C(=O)O)C[C@@H]2CC)[C@H]2CCC(=O)[C@H]2C1 [coronatine]
[1]; jazD leaves, 2 or 4 days
  sensitivity of jazD leaves to coronatine: hypersensitive
[1]; jazD leaves, 4 days after treatment
  leaf response after COR application: near complete loss of chlorophyll and spreading of necrosis-like symptoms throughout the leaf
[1]; jazD leaves, within 2 days of treatment
  leaf response at the site of COR application: visible chlorosis
[1]; wild type and jazQ leaves, within 4 days
  chlorosis after COR application: no apparent signs of chlorosis
[1]; wild type and jazQ leaves, within 4 days of treatment
  leaf response at the site of COR application: visible accumulation of anthocyanin pigments

## OC[C@H]1O[C@@](CO)(O[C@H]2O[C@H](CO)[C@@H](O)[C@H](O)[C@H]2O)[C@@H](O)[C@@H]1O [sucrose]
[2]; all genotypes tested (WT, jazQ, jazD), 16-day-old seedlings on agar medium
  effect of exogenous sucrose on biomass: promotes increased biomass
[2]; jazD in comparison with wild type and jazQ, 11-day-old seedlings, 23 mM sucrose
  effect of exogenous sucrose on root growth: enhanced the root growth of jazD
[2]; jazD shoots compared with wild type and jazQ
  stimulatory effect of sucrose on growth of shoots: statistically greater than that of wild type and jazQ

## Cc1ccc2[nH]cc(C[C@H](N)C(=O)O)c2c1 [5-MT, 5-methyl-tryptophan]
[3]
  resistance to 5-MT (root length): increased resistance

## CC/C=C\CC1C(=O)CCC1CC(=O)OC (stereo not shown) [MeJA, methyljasmonate]
[4]; jazD seedlings, 0, 5 or 25 μM MeJA, 8-day-old
  sensitivity of jaz decuple mutant (jazD) to jasmonate: highly sensitive
[4]; jazD seedlings, 5 μM MeJA
  growth of roots in the presence of MeJA: effectively arrested
[4]; jazU seedlings versus jazD, very low concentrations (e.g., 1 μM) of MeJA
  root length in the presence of MeJA: even shorter than jazD

## NC1(C(=O)O)CC1 [ACC, 1-aminocyclopropane-1-carboxylic acid]
[5]
  stimulation of hook curvature in response to ACC: reduced in jazD but not jazQ seedlings
